Measurements taken from US20260356819A1, “OXOISOINDOLINYL-SUBSTITUTED […] DERIVATIVE AND USE THEREOF” (GLUETACS THERAPEUTICS (SHANGHAI) CO., LTD., priority 2023, published 2026).

Key:
Format in all cases: cell-based
Conditions in all cases: compounds at 50 nM and 500 nM
IKZF3 = target: T1, IKZF3 (Homo sapiens, UniProt Q96SW2+Q9UKT9); experiment: Western blot degradation of IKZF3 in hPBMCs (24 h)
T1 construct: The supernatant was aspirated as the extracted total cell protein; endogenous in cells; host or cells: human peripheral blood mononuclear cells (hPBMCs)
Method in brief: (§1)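 hPBMCs (1×10^6 cells/mL) were treated with compound at 50 nM and 500 nM for 24 h, lysed in RIPA with protease inhibitors and analysed by SDS-PAGE/Western blot. Band grayscale, normalised to internal control, gave protein remaining (%); DC50 estimated versus DMSO bands.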

WEE1 = target: T2, WEE1 (Homo sapiens, UniProt P30291+Q96SW2); experiment: Western blot degradation of WEE1 in hPBMCs (24 h)
T2 construct: The supernatant was aspirated as the extracted total cell protein; endogenous in cells; host or cells: human peripheral blood mononuclear cells (hPBMCs)
Method in brief: as §1

IKZF1 = target: T3, IKZF1 (Homo sapiens, UniProt Q13422+Q96SW2); experiment: Western blot degradation of IKZF1 in hPBMCs (24 h)
T3 construct: The supernatant was aspirated as the extracted total cell protein; endogenous in cells; host or cells: human peripheral blood mononuclear cells (hPBMCs)
Method in brief: as §1

CK1α = target: T4, CK1α (Homo sapiens, UniProt P48729+Q96SW2); experiment: Western blot degradation of CK1α in hPBMCs (24 h)
T4 construct: The supernatant was aspirated as the extracted total cell protein; endogenous in cells; host or cells: human peripheral blood mononuclear cells (hPBMCs)
Method in brief: as §1

GSPT1 = target: T5, GSPT1 (Homo sapiens, UniProt P15170+Q96SW2); experiment: Western blot degradation of GSPT1 in hPBMCs (24 h)
T5 construct: The supernatant was aspirated as the extracted total cell protein; endogenous in cells; host or cells: human peripheral blood mononuclear cells (hPBMCs)
Method in brief: as §1

IKZF2 = target: T6, IKZF2 (Homo sapiens, UniProt Q96SW2+Q9UKS7); experiment: Western blot degradation of IKZF2 in hPBMCs (24 h)
T6 construct: The supernatant was aspirated as the extracted total cell protein; endogenous in cells; host or cells: human peripheral blood mononuclear cells (hPBMCs)
Method in brief: as §1

T1 sequence (Q9UKT9 whole entry): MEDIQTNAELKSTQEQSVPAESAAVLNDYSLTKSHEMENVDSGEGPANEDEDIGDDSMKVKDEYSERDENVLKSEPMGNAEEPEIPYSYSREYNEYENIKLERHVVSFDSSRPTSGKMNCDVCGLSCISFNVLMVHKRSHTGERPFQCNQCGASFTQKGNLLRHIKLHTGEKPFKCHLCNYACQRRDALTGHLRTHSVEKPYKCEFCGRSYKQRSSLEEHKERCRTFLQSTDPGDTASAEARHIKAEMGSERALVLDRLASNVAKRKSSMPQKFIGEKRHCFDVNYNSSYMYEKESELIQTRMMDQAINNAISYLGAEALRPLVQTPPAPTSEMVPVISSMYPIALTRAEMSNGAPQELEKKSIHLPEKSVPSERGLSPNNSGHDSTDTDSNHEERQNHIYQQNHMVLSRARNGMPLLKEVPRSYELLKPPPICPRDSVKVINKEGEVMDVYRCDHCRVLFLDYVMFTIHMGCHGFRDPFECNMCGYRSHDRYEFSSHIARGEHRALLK
T1 sequence (Q96SW2 whole entry): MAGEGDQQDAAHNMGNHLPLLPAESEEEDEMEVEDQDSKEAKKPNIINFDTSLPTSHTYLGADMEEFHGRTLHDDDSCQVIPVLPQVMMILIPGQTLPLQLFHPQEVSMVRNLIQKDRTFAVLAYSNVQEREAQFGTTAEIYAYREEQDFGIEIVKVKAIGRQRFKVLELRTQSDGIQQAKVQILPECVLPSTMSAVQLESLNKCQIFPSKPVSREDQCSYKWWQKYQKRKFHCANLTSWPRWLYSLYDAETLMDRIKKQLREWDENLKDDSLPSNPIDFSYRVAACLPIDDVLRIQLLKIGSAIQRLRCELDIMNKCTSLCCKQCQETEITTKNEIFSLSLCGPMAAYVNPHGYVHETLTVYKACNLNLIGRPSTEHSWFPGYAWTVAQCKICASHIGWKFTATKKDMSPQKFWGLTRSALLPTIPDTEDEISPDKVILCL
T1 sequence (Q16531 whole entry partner): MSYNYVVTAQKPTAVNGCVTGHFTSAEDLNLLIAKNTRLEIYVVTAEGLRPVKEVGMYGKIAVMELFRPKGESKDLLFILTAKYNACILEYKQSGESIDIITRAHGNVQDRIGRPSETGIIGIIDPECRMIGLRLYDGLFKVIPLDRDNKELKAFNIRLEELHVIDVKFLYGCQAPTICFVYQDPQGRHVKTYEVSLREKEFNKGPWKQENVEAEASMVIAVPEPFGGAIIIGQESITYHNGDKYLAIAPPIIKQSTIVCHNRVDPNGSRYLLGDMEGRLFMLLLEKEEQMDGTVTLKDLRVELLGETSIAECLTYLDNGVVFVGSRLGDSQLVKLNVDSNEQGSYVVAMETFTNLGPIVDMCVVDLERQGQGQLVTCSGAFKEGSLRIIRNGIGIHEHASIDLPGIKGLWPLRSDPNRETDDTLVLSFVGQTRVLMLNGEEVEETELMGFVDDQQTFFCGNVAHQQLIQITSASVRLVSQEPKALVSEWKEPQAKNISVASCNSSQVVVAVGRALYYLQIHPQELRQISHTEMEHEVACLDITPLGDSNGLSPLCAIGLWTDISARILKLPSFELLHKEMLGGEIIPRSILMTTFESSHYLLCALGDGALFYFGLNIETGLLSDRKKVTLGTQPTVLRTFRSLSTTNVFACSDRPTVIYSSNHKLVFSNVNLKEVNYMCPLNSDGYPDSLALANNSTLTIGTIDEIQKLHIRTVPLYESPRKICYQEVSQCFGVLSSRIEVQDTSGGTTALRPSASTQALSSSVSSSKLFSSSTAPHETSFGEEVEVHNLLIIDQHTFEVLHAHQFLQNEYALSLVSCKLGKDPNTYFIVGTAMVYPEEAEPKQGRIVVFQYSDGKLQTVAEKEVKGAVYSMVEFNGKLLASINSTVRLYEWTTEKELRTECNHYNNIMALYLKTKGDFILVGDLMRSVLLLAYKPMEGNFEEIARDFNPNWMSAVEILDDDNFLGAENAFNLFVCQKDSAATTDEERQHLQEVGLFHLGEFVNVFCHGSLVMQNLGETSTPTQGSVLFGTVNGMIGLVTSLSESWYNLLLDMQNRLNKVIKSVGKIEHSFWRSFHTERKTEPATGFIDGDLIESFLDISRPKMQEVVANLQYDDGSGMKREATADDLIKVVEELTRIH
T3 sequence (Q13422 whole entry): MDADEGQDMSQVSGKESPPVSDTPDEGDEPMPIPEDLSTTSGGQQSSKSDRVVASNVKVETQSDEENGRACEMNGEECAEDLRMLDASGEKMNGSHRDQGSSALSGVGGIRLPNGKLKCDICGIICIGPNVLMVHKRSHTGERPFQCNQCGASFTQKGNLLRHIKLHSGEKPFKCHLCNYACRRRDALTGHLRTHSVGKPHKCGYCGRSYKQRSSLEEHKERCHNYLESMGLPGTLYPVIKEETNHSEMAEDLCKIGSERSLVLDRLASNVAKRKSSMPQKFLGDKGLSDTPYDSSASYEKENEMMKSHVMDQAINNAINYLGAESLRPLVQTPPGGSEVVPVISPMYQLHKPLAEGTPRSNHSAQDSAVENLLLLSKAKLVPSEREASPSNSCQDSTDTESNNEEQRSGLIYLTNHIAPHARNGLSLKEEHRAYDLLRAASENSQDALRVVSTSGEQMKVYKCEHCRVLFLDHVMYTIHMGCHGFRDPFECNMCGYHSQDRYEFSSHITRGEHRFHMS
T3 sequence (Q96SW2 whole entry): as the sequence (Q96SW2 whole entry) above
T3 sequence (Q16531 whole entry partner): as the sequence (Q16531 whole entry partner) above
T6 sequence (Q9UKS7 whole entry): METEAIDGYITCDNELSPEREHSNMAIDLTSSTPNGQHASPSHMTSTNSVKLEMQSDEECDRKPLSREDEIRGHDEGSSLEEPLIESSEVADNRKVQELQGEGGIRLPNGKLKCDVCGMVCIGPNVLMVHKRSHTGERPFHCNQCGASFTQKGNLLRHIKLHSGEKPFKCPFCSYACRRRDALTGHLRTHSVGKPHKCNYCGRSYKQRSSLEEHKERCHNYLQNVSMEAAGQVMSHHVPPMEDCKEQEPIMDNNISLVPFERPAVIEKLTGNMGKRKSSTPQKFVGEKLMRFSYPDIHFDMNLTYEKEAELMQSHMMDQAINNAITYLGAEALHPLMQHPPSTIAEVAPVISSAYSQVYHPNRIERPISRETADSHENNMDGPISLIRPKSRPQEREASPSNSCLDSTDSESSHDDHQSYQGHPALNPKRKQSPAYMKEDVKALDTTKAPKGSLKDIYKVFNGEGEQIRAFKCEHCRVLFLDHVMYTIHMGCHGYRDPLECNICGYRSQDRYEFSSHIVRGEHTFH
T6 sequence (Q96SW2 whole entry): as the sequence (Q96SW2 whole entry) above
T6 sequence (Q16531 whole entry partner): as the sequence (Q16531 whole entry partner) above
T2 sequence (P30291 whole entry): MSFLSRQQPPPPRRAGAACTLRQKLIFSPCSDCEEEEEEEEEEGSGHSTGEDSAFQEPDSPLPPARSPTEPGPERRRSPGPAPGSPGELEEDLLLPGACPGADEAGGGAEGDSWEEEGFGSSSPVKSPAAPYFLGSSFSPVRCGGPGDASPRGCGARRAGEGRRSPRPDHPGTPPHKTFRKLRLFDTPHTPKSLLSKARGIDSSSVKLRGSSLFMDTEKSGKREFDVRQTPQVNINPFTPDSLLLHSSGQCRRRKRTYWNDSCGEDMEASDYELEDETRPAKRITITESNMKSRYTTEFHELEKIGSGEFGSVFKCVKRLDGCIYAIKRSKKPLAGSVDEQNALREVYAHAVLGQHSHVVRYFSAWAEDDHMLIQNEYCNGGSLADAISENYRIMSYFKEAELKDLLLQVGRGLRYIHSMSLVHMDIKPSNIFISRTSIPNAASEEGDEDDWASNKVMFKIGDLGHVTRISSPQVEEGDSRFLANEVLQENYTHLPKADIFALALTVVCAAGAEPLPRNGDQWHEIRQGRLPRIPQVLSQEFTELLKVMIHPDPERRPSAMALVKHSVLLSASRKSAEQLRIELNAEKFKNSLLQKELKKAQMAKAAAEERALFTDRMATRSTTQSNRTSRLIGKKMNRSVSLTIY
T2 sequence (Q96SW2 whole entry): as the sequence (Q96SW2 whole entry) above
T2 sequence (Q16531 whole entry partner): as the sequence (Q16531 whole entry partner) above
T4 sequence (P48729 whole entry): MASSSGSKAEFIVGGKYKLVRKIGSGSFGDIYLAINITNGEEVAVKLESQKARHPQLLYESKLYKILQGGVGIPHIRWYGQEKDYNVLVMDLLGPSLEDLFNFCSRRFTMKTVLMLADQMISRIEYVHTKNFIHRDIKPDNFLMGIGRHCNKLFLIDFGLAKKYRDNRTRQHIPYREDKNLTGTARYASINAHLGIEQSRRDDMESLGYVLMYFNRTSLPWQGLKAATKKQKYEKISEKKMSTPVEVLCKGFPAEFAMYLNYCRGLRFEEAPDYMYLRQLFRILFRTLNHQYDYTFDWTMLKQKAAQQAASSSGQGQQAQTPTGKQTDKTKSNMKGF
T4 sequence (Q96SW2 whole entry): as the sequence (Q96SW2 whole entry) above
T4 sequence (Q16531 whole entry partner): as the sequence (Q16531 whole entry partner) above

Structure (SMILES) | IKZF3 substrate protein remaining % (IKZF3) | WEE1 substrate protein remaining % (WEE1) | IKZF1 substrate protein remaining % (IKZF1) | CK1α substrate protein remaining % (CK1α) | GSPT1 substrate protein remaining % (GSPT1) | IKZF2 substrate protein remaining % (IKZF2)
CC1(C)CCC(CN2CC3CC(C2)N3Cc2ccc3c(c2)C(=O)N(N2CCC(=O)NC2=O)C3=O)=C(c2ccc(Cl)cc2)C1 [GT-06457, 5-((3-((4′-chloro-5,5-dimethyl-3,4,5,6-tetrahydro-[1,1′-biphenyl]-2-yl)methyl)-3,6-diazabicyclo[3.1.1]heptan-6-yl)methyl)-2-(2,4-dioxotetrahydropyrimidin-1(2H)-yl)isoindoline-1,3-dione] | A (0% ≤ substrate protein remaining % ≤80%) | A (0% ≤ substrate protein remaining % ≤80%) | A (0% ≤ substrate protein remaining % ≤80%) | A (0% ≤ substrate protein remaining % ≤80%) | A (0% ≤ substrate protein remaining % ≤80%) | A (0% ≤ substrate protein remaining % ≤80%)
CC1(C)CCC(CN2C3CC2CN(Cc2ccc4c(c2)CN(N2CCC(=O)NC2=O)C4=O)C3)=C(c2ccc(Cl)cc2)C1 [GT-06458, 1-(5-((6-((4′-chloro-5,5-dimethyl-3,4,5,6-tetrahydro-[1,1′-biphenyl]-2-yl)methyl)-3,6-diazabicyclo[3.1.1]heptan-3-yl)methyl)-1-oxoisoindolin-2-yl)dihydropyrimidine-2,4(1H,3H)-dione] | A (0% ≤ substrate protein remaining % ≤80%) | A (0% ≤ substrate protein remaining % ≤80%) | A (0% ≤ substrate protein remaining % ≤80%) | A (0% ≤ substrate protein remaining % ≤80%) | A (0% ≤ substrate protein remaining % ≤80%) | A (0% ≤ substrate protein remaining % ≤80%)
CC1(C)CCC(CN2C3CC2CN(Cc2ccc4c(c2)C(=O)N(N2CCC(=O)NC2=O)C4=O)C3)=C(c2ccc(Cl)cc2)C1 [GT-06459, 5-((6-((4′-chloro-5,5-dimethyl-3,4,5,6-tetrahydro-[1,1′-biphenyl]-2-yl)methyl)-3,6-diazabicyclo[3.1.1]heptan-3-yl)methyl)-2-(2,4-dioxotetrahydropyrimidin-1(2H)-yl)isoindoline-1,3-dione] | A (0% ≤ substrate protein remaining % ≤80%) | A (0% ≤ substrate protein remaining % ≤80%) | A (0% ≤ substrate protein remaining % ≤80%) | A (0% ≤ substrate protein remaining % ≤80%) | A (0% ≤ substrate protein remaining % ≤80%) | A (0% ≤ substrate protein remaining % ≤80%)
O=C1CCN(N2Cc3cc(CN4CCN(c5cccc(F)c5)CC4)ccc3C2=O)C(=O)N1 [GT-06701, 1-(5-((4-(3-fluorophenyl)piperazin-1-yl)methyl)-1-oxoisoindolin-2-yl)dihydropyrimidine-2,4(1H,3H)-dione] | B (80%< substrate protein remaining % ≤100%) | B (80%< substrate protein remaining % ≤100%) | B (80%< substrate protein remaining % ≤100%) | A (0% ≤ substrate protein remaining % ≤80%) | A (0% ≤ substrate protein remaining % ≤80%) | B (80%< substrate protein remaining % ≤100%)
O=C1CCN(N2C(=O)c3ccc(CN4CCN(c5ccccc5)CC4)cc3C2=O)C(=O)N1 [GT-06719, 2-(2,4-dioxotetrahydropyrimidin-1(2H)-yl)-5-((4-phenylpiperazin-1-yl)methyl)isoindoline-1,3-dione] | A (0% ≤ substrate protein remaining % ≤80%) | B (80%< substrate protein remaining % ≤100%) | B (80%< substrate protein remaining % ≤100%) | B (80%< substrate protein remaining % ≤100%) | B (80%< substrate protein remaining % ≤100%) | B (80%< substrate protein remaining % ≤100%)
COc1ccccc1N1CCN(Cc2ccc3c(c2)C(=O)N(N2CCC(=O)NC2=O)C3=O)CC1 [GT-06720, 2-(2,4-dioxotetrahydropyrimidin-1(2H)-yl)-5-((4-(2-methoxyphenyl)piperazin-1-yl)methyl)isoindoline-1,3-dione] | A (0% ≤ substrate protein remaining % ≤80%) | B (80%< substrate protein remaining % ≤100%) | B (80%< substrate protein remaining % ≤100%) | B (80%< substrate protein remaining % ≤100%) | B (80%< substrate protein remaining % ≤100%) | B (80%< substrate protein remaining % ≤100%)
COc1cccc(N2CCN(Cc3ccc4c(c3)C(=O)N(N3CCC(=O)NC3=O)C4=O)CC2)c1 [GT-06721, 2-(2,4-dioxotetrahydropyrimidin-1(2H)-yl)-5-((4-(3-methoxyphenyl)piperazin-1-yl)methyl)isoindoline-1,3-dione] | A (0% ≤ substrate protein remaining % ≤80%) | B (80%< substrate protein remaining % ≤100%) | A (0% ≤ substrate protein remaining % ≤80%) | B (80%< substrate protein remaining % ≤100%) | B (80%< substrate protein remaining % ≤100%) | A (0% ≤ substrate protein remaining % ≤80%)
O=C1CCN(N2C(=O)c3ccc(CN4CCN(c5cccc(Br)c5)CC4)cc3C2=O)C(=O)N1 [GT-06722, 5-((4-(3-bromophenyl)piperazin-1-yl)methyl)-2-(2,4-dioxotetrahydropyrimidin-1(2H)-yl)isoindoline-1,3-dione] | A (0% ≤ substrate protein remaining % ≤80%) | A (0% ≤ substrate protein remaining % ≤80%) | A (0% ≤ substrate protein remaining % ≤80%) | A (0% ≤ substrate protein remaining % ≤80%) | B (80%< substrate protein remaining % ≤100%) | B (80%< substrate protein remaining % ≤100%)
O=C1CCN(N2C(=O)c3ccc(CN4CCN(c5cccc(F)c5)CC4)cc3C2=O)C(=O)N1 [GT-06724, 2-(2,4-dioxotetrahydropyrimidin-1(2H)-yl)-5-((4-(3-fluorophenyl)piperazin-1-yl)methyl)isoindoline-1,3-dione] | B (80%< substrate protein remaining % ≤100%) | A (0% ≤ substrate protein remaining % ≤80%) | A (0% ≤ substrate protein remaining % ≤80%) | B (80%< substrate protein remaining % ≤100%) | B (80%< substrate protein remaining % ≤100%) | B (80%< substrate protein remaining % ≤100%)
O=C1CCN(N2C(=O)c3ccc(CN4CCN(c5ccc(F)cc5)CC4)cc3C2=O)C(=O)N1 [GT-06725, 2-(2,4-dioxotetrahydropyrimidin-1(2H)-yl)-5-((4-(4-fluorophenyl)piperazin-1-yl)methyl)isoindoline-1,3-dione] | B (80%< substrate protein remaining % ≤100%) | B (80%< substrate protein remaining % ≤100%) | A (0% ≤ substrate protein remaining % ≤80%) | B (80%< substrate protein remaining % ≤100%) | B (80%< substrate protein remaining % ≤100%) | B (80%< substrate protein remaining % ≤100%)
O=C1CCN(N2C(=O)c3ccc(CN4CCN(c5ccccc5Cl)CC4)cc3C2=O)C(=O)N1 [GT-06726, 5-((4-(2-chlorophenyl)piperazin-1-yl)methyl)-2-(2,4-dioxotetrahydropyrimidin-1(2H)-yl)isoindoline-1,3-dione] | A (0% ≤ substrate protein remaining % ≤80%) | A (0% ≤ substrate protein remaining % ≤80%) | B (80%< substrate protein remaining % ≤100%) | A (0% ≤ substrate protein remaining % ≤80%) | B (80%< substrate protein remaining % ≤100%) | A (0% ≤ substrate protein remaining % ≤80%)
O=C1CCN(N2C(=O)c3ccc(CN4CCN(c5ccccc5Br)CC4)cc3C2=O)C(=O)N1 [GT-06727, 5-((4-(2-bromophenyl)piperazin-1-yl)methyl)-2-(2,4-dioxotetrahydropyrimidin-1(2H)-yl)isoindoline-1,3-dione] | A (0% ≤ substrate protein remaining % ≤80%) | B (80%< substrate protein remaining % ≤100%) | B (80%< substrate protein remaining % ≤100%) | A (0% ≤ substrate protein remaining % ≤80%) | B (80%< substrate protein remaining % ≤100%) | A (0% ≤ substrate protein remaining % ≤80%)
